Test [1] concerns AKT phosphorylation in HCC cell lines (Huh7 and Hep3B). The test is described as follows: AKT phosphorylation, immunoblot assay. It is filed as cell-based, human. The conditions noted are these: HCC cells. The protocol:
Medium was exchanged every day, and the aforementioned cells were cultured for 4 days in 300 μmol/L hydrogen peroxide (H2O2) (Sigma Aldrich; H1009). In several experiments, the cells were treated for 1 hour with 5 mmol/L N-acetylcysteine (NAC) (Sigma Aldrich; A7250), 25 μmol/L idelalisib (LC Laboratoties, Woburn, Mass., USA; I-7447), 25 μmol/L perifosine (LC Laboratoties, Woburn, Mass., USA; P-6522), or 30 μmol/L GSK3β inhibitor (GSK3β inhibitor XI) (Santa Cruz; sc-204770) (31) before adding H2O2. Furthermore, sterilized distilled water (pH 7.0) was used as a negative control (i.e., mock treatment).
Total 2×10^5 cells were boiled for 5 minutes in 2×SDS sample buffer (100 mmol/L TrisHCl [pH 6.8], 4% SDS, 0.2% bromophenol blue, 20% glycerol, and 200 mmol/L β-mercaptoethanol), and then subjected to SDS-PAGE and Western blotting. To detect the TERT, the cells were cultured in 2×SDS sample buffer for 15 minutes at 55° C. TERT-specific (1:300, Rockland Immunochemicals, Gilbertsville, Pa., USA; 600-401-252), AKT-specific (1:1000, Cell Signaling Technology; #9272), phospho-AKT-specific (1:2000, Cell Signaling Technology; #4060), GAPDH-specific (1:2000, Santa Cruz Biotechnology; sc-47724), or β-actin-specific (1:2000, Sigma-Aldrich, St. Louis, Mo., USA; A5441) antibody was diluted in 5% skim milk or bovine serum albumin with TBS-Tween 20, cultured overnight at 4° C., washed, and cultured with HRP-conjugated secondary antibody (1:1000, Abcam; ab131368, or ab131366). By using FUSION-SOLO imager (Vilber Lourmat, Marne La Vallee, France), a chemical fluorescence image was obtained.

In a further test the test system is Hep3B cells. The test is described as follows: Cell proliferation / cell viability, MTS assay. It is filed as cell-based. The conditions noted are these: Homo sapiens, treated for 96 hours. On the procedure:
(§1) HCC cell lines (Huh7 and Hep3B) were obtained from Korean Cell Line Bank (KCLB, Seoul, Korea). THLE-3 cell line (immortalized human liver […] cell line produced by infection with SV40 large T antigen) was obtained from ATCC (American Type Culture Collection). Cell line authentication by KCLB and ATCC was carried out by using DNA fingerprinting as a short tandem repeat analysis. All cell lines were tested for mycoplasma contamination. HCC cells were cultured in DMEM (Welgene, Gyeongsan-si, Korea) medium complemented with 10% fetal bovine serum (GenDepot, Barker, Tex., USA) in a humidified 5% CO2 incubator at 37° C. As it has been recommended by the ATCC manual, THLE-3 cells were cultured in BEGM (Lonza) medium complemented with 10% fetal bovine serum in a humidified 5% CO2 incubator at 37° C.
(§2) As it has been described before (10), the cell viability was measured by using Cell Titer 96 MTS (Promega). Cells were sewn in an amount of 500 to 1000 cells per well, and then treated for 96 hours at a pharmaceutical concentration as described in each graph. Each analysis was repeated 3 times at least. After plotting the data, IC50 values were obtained by using GraphPad software. By using Flexstation 3 multimode plate reader (Molecular Devices), optical density showing formazan production was measured at 490 nm. […]
(Tetrazolium assays rely on reduction of a dye to a coloured formazan, in cell work by metabolically active cells.)

The next test concerns Huh7 cells. Nature of the test: Cell proliferation / cell viability, MTS assay. The conditions noted are these: Homo sapiens, Huh-7, treated for 96 hours. It is filed as cell-based. On the procedure:
as §1, §2

Consider one compound from patent publication US10463669B2, “Composition for treating or preventing liver cancer” (Seoul National University R&DB Foundation, priority 2016, dated 2019).

Usually IC50 stands for the midpoint of a concentration-inhibition curve. Low readings indicate greater potency in that assay, high ones weaker potency in that assay.

Take `CC[C@H](Nc1ncnc2nc[nH]c12)c1nc2cccc(F)c2c(=O)n1-c1ccccc1` [idelalisib, 5-fluoro-3-phenyl-2-[(1S)-1-(7H-purin-6-ylamino)propyl]-4(3H)-quinazolinone]: the pAKT entry in test [1] is on record as “inhibit”. Besides, the IC50 with Hep3B cells and in the test on Huh7 cells was below 30 µM in each case.
